Laboratory results as given in US8921307B2, “Synthetic linear apelin mimetics for the treatment of heart failure” (priority 2012, dated 2014).
Where a SMILES comes first, the peptide text is derived from it. [ ]: non-standard residue; d: D form. pGlu = O=C1CC[C@@H](C(=O)O)N1; dNle = CCCC[C@@H](N)C(=O)O

Key:
hAPJ = molecular target: T1, hAPJ (Homo sapiens, UniProt P35414); experiment: hAPJ Calcium Flux Assay; format: cell-based; settings: Chem-5 APJ stable cells, FLIPR calcium flux stimulation; read-out: hAPJ Ca^2+ Flux EC50
T1 sequence (P35414 1-380): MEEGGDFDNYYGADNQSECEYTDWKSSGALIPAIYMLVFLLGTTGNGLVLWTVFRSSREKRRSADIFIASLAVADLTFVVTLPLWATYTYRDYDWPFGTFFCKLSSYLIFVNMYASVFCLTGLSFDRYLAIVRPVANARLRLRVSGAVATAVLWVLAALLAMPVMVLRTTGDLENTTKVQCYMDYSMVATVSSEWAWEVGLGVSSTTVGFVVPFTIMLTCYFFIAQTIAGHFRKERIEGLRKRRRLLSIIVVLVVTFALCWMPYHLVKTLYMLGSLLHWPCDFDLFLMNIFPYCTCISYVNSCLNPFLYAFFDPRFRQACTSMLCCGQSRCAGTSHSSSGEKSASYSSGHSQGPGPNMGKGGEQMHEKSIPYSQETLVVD
Summary of the method: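 Chem-5 cells stably expressing APJ, loaded 1 h with Calcium 4 dye plus 2.5 mM probenecid at 37 °C. Peptides added at final […] in HBSS/HEPES/0.1% BSA, in triplicate.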

[1] = Surrogate Activity-Based Plasma Stability Assay; format: in vitro ADME; settings: rat
Procedure: Stability half-life was then calculated by the formula, t½=0.693÷k Surrogate Activity-Based Plasma Stability Assay: […]
2) Calculate slope of value above and […]

[2] = Plasma Stability Assay (LC-MS); format: in vitro ADME; settings: male, Sprague-Dawley, rat
Procedure: Plasma Stability Assay: Materials: Working solution: 1 mg/mL test article is prepared in Milli-Q water Extraction solution: Methanol:Acetonitrile:Water (1:1:1) with 0.1% Formic Acid and 400 ng/mL Glyburide. Plasma: Male Sprague-Dawley rat plasma (with sodium heparin), purchased from Bioreclamation LLC (Liverpool, N.Y.). Test article was prepared in one of the following biological matrices: heparinized rat plasma, heparinized rat whole blood or lung homogenate. […] Lung homogenate samples were prepared by diluting lung homogenate to 1 mg/ml protein concentration with phosphate buffered saline (PBS), followed by addition of 5 uL Working solution to 995 uL diluted lung homogenate. The samples were incubated at 37° C. with gentle shaking (65˜75 rpm) in a water bath incubator. […] Afterwards, a pipetting device (Tecan Temo) was used to tranfer the supernatants to another plate and add 50 uL of water to all samples. The plate was vortexed prior to LC-MS analysis. LC-MS Analysis of stability samples HPLC: Agilent 1290 HPLC with autosampler Column: MAC-MOD ACE C18, 3 μm, 30 mm×2.1 mm i.d. Mobile phase A: 0.1% Formic acid in acetonitrile Mobile phase B: 0.1% Formic acid in water Gradient Program: [table]

[3] = Surrogate Activity based Plasma stability t½
[4] = Surrogate activity-based Plasma stability t½

Row | EC50 (hAPJ) | half-life [1, 3] | half-life [1, 4] | half-life at 5000 ng/mL [2] | SMILES
1 | 8.8 nM | 6.82 h | 6.82 h | 7.47 h | CCCC[C@@H](NC(=O)[C@@H]1CCCN1C(=O)CNC(=O)[C@H](CCCCN)NC(=O)[C@@H](Cc1c[nH]cn1)NC(=O)[C@@H](C)NC(=O)[C@H](CC(C)C)NC(=O)[C@H](CCCNC(=N)N)NC(=O)[C@@H]1CCCN1C(=O)[C@H](CCCNC(=N)N)NC(=O)[C@@H]1CCC(=O)N1)C(=O)N[C@H](C)C(=O)N[C@H](Cc1ccccc1)C(=O)O [Example 16, pE-R-P-R-L-a-h-K-G-P-nle-a-f-OH]
2 | 3.1 nM | > 16.7 h | > 16.7 h | 6.08 h | CCCC[C@@H](NC(=O)[C@@H]1CCCN1C(=O)CNC(=O)[C@H](CCCCN)NC(=O)[C@H](Cc1ccccc1)NC(=O)[C@@H](C)NC(=O)[C@H](CC(C)C)NC(=O)[C@H](CCCNC(=N)N)NC(=O)[C@@H]1CCCN1C(=O)[C@H](CCCNC(=N)N)NC(=O)[C@@H]1CCC(=O)N1)C(=O)N[C@H](C)C(=O)N[C@H](Cc1ccccc1)C(=O)O [Example 17, pE-R-P-R-L-a-F-K-G-P-nle-a-f-OH] ([pGlu]RPRL[dA]FKGP[dNle][dA][dF]-OH)
3 | 2.4 nM | 2.13 h | 2.14 h | 2.02 h | CCCC[C@H](NC(=O)[C@@H]1CCCN1C(=O)CNC(=O)[C@H](CCCCN)NC(=O)[C@H](Cc1c[nH]cn1)NC(=O)[C@@H](C)NC(=O)[C@H](CC(C)C)NC(=O)[C@H](CCCNC(=N)N)NC(=O)[C@@H]1CCCN1C(=O)[C@H](CCCNC(=N)N)NC(=O)[C@@H]1CCC(=O)N1)C(=O)N[C@H](C)C(=O)N[C@H](Cc1ccccc1)C(=O)O [Example 30, pE-R-P-R-L-a-H-K-G-P-Nle-a-f-OH]
